From PMC7155171, “Probing the Open Global Health Chemical Diversity Library for Multistage-Active Starting Points for Next-Generation Antimalarials” (ACS Infectious Diseases, 2020)
Like-named read-outs stand apart in the source and are kept apart here.

Experiments:
[1] = system: P. falciparum (NF54) stage V gametocytes; experiment: Stage V gametocyte viability assay (MitoTracker Red CMXRos high content imaging); format: cell-based, Plasmodium falciparum; details: Plasmodium falciparum; for inhibition at 2 µM: read-out: Stg V Gam primary screen: Inhibition % (2uM) (n=2)
[2] = system: P. berghei liver stage (PbLuc); experiment: P. berghei luciferase liver stage (PbLuc) assay in HepG2-A16-CD81 hepatocytes; format: cell-based, Plasmodium berghei; details: Plasmodium berghei; for IC50: HepG2-A16-CD81, 12pt dose response, read-out: PbLuc 12pt dose response: IC50; for Emax: HepG2-A16-CD81, 48 h, 12pt dose response, maximum inhibition
[3] = HepG2 cytotoxicity screening (CellTiter-Glo); details: human, uninfected HepG2-A16-CD81 (EGFP) hepatocytes
[4] = system: HepG2-A16-CD81 hepatocytes; experiment: HepG2 cytotoxicity screening (CellTiter-Glo); details: for HepG2 cytotoxicity 12pt dose response: Maximum inhibition (%): 12pt dose response
[5] = target: recombinant firefly luciferase (Photinus pyralis, UniProt P08659); experiment: biochemical; details: dose response; for Emax: maximum inhibition, read-out: rLuc inhibition dose response: Maximum inhibition (%); for IC50: read-out: rLuc inhibition dose response: IC50
[6] = NF54, read-out: Stg V Gam dose response IC50 (µM) (n=3), 10-point dose response, n=3, 72 h
[7] = NF54, 72 h, read-out: Stg V Gam dose response IC50 (µM) (n=3), 10-point dose response, n=3, 72 h
[8] = NF54, 72 h, read-out: GAM V IC50, stage V gametocytes, 72 h

Chain of recombinant firefly luciferase (P08659 whole entry): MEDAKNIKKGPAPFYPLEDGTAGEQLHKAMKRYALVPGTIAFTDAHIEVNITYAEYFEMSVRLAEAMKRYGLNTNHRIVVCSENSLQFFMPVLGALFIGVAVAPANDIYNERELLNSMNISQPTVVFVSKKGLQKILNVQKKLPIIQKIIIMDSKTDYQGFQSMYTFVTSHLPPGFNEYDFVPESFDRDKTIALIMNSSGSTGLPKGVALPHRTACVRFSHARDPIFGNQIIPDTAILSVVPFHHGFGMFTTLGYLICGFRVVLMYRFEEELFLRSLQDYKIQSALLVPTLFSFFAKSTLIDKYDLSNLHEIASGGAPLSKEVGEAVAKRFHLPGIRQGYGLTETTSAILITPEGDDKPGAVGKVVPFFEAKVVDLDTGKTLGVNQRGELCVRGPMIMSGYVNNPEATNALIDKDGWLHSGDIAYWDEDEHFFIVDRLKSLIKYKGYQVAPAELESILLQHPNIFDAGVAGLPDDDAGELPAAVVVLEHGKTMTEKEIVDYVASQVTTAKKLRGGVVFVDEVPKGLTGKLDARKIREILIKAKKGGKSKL

Compound | IC50 [1, 7] [µM] | inhibition at 2 µM ([1]; NF54, 72 h) [%] | IC50 [2] [µM] | Emax [2] [%] | IC50 [3] [µM] | HepG2 cytotoxicity 12pt dose response: Maximum inhibition (%) [4] [%] | Emax [5] [%] | IC50 [5] [µM] | HepG2 Cytotoxicity primary screen (2uM): % Inhibition [4] [%] | other results
CCCc1nc2c(c(C)c(C)n2CCN(C)C)c(N)c1CC [DDD01026700, CCCC1=C(CC)C(N)=C2C(C)=C(C)N(CCN(C)C)C2=N1] | – | – | – | – | – | – | – | – | – | IC50 [1, 6]: 0.97 µM; inhibition at 2 µM ([1]; NF54, Table S6, 2uM, n=2, 72 h): 49.2%
CCc1c(-c2ccccc2)nc2c(c(C)c(C)n2CCN(C)C)c1N [DDD01026714, CCC1=C(N=C2N(CCN(C)C)C(C)=C(C)C2=C1N)C1=CC=CC=C1] | 0.868 | 56.1 | – | – | – | – | – | – | – | –
CC(C)Nc1nc2c(c(NC3CC3)n1)CCN(C1CCOCC1)CC2 [DDD01029612, CC(C)NC1=NC2=C(CCN(CC2)C2CCOCC2)C(NC2CC2)=N1] | 4.48 | 57 | – | – | – | – | – | – | – | –
Cc1cccc(CN2Cc3[nH]nc(COCCO)c3C2)n1 [DDD01030906, CC1=CC=CC(CN2CC3=C(C2)C(COCCO)=NN3)=N1] | 1.47 | 82.1 | – | – | – | – | – | – | – | –
CC(C)Nc1nc2c(c(NC3CC3)n1)CCN(Cc1nccn1C)CC2 [DDD01031405, CC(C)NC1=NC2=C(CCN(CC3=NC=CN3C)CC2)C(NC2CC2)=N1] | 2.65 | 58.7 | – | – | – | – | – | – | – | –
Cc1cccc(CN2C[C@@H]3COC[C@H](NS(C)(=O)=O)[C@@H]3C2)n1 [DDD01032715, CC1=CC=CC(CN2C[C@@H]3COC[C@H](NS(C)(=O)=O)[C@@H]3C2)=N1] | – | – | – | – | – | – | – | – | – | IC50 [1, 6]: 1.54 µM; inhibition at 2 µM ([1]; NF54, Table S6, 2uM, n=2, 72 h): 70.6%
Cc1cccc(CN2CCC3(CCN(c4cccnc4)C3=O)C2)n1 (stereo not shown) [DDD01033290, CC1=CC=CC(CN2CCC3(CCN(C3=O)C3=CC=CN=C3)C2)=N1] | – | – | – | – | – | – | – | – | – | IC50 [1, 6]: 0.46 µM; inhibition at 2 µM ([1]; NF54, Table S6, 2uM, n=2, 72 h): 75.8%
CO[C@H]1CCN(Cc2cccc(C)n2)[C@@H]2CN(Cc3cccnc3)C[C@H]12 [DDD01036932, CO[C@H]1CCN(CC2=CC=CC(C)=N2)[C@@H]2CN(CC3=CC=CN=C3)C[C@H]12] | 0.276 | 78.9 | – | – | – | – | – | – | – | –
Cc1cc(C)n(C2=NC(NCCC(C)C)c3c(sc4c3CCCC4)N2)n1 (stereo not shown) [DDD01037468, CC(C)CCNC1N=C(NC2=C1C1=C(CCCC1)S2)N1N=C(C)C=C1C] | > 10 | – | – | – | – | – | – | – | – | –
Cc1cc(C)n(C2=NC(NCCCO)c3c(sc4c3CCCC4)N2)n1 (stereo not shown) [DDD01037469, CC1=NN(C(C)=C1)C1=NC(NCCCO)C2=C(N1)SC1=C2CCCC1] | 0.39 | 91.5 | – | – | – | – | – | – | – | –
c1ccc(CCN2CCCC2c2cccc(Nc3nccs3)n2)cc1 (stereo not shown) [DDD01056785, C(CC1=CC=CC=C1)N1CCCC1C1=CC=CC(NC2=NC=CS2)=N1] | 0.392 | 73.4 | – | – | – | – | – | – | – | IC50 [1, 8]: 0.39 µM
Cc1cnc(Nc2cccc(C3CCCN3Cc3cn(C)nc3C)n2)s1 (stereo not shown) [DDD01056825, CN1C=C(CN2CCCC2C2=NC(NC3=NC=C(C)S3)=CC=C2)C(C)=N1] | 0.095 | 85.8 | – | – | – | – | – | – | – | IC50 [1, 8]: 0.09 µM
Cc1ccccc1CN1CCCC1c1cccc(Nc2nccs2)n1 (stereo not shown) [DDD01057017, CC1=CC=CC=C1CN1CCCC1C1=CC=CC(NC2=NC=CS2)=N1] | 0.261 | – | – | – | – | – | – | – | – | IC50 [1, 8]: 0.26 µM
Cc1nn(C)cc1CN1CCCC1c1cccc(Nc2nccs2)n1 (stereo not shown) [DDD01057079, CN1C=C(CN2CCCC2C2=CC=CC(NC3=NC=CS3)=N2)C(C)=N1] | 0.578 | 84.4 | – | – | – | – | – | – | – | IC50 [1, 8]: 0.58 µM
COc1cccc(CN2CCCC2c2cncc(Nc3nncs3)n2)c1 (stereo not shown) [DDD01058609, COC1=CC=CC(CN2CCCC2C2=CN=CC(NC3=NN=CS3)=N2)=C1] | 0.534 | 63.5 | – | – | – | – | – | – | – | IC50 [1, 8]: 0.53 µM
Nc1nccc(N2CCCC(CO)(CCOc3ccccc3)C2)n1 (stereo not shown) [UCSD-0838947] | – | – | 6.46 | 89.7 | > 25 | 51.4 | 8.22 | > 25 | – | inhibition at 2 µM [3]: -2.96%
Nc1nc(CCC(=O)N2CCOC(CC3CCCCC3)C2)cs1 (stereo not shown) [UCSD-0838977] | – | – | 15 | 93.7 | > 25 | 8.43 | 7.71 | > 25 | -10.55 | –
CC(=O)c1ccc(N2CCC(CO)(CCOc3ccccc3)CC2)nc1 [UCSD-0839049] | – | – | 14.6 | 105 | > 25 | 60.3 | 13.2 | > 25 | 17.47 | –
Cc1nc(N2CC[C@@H](NC(=O)c3cnccn3)[C@H](O)C2)c2ccsc2n1 [UCSD-0839060] | – | – | 10.4 | 90.6 | > 25 | 48.7 | 0.656 | > 25 | -14.64 | –
c1ccc(-c2ccc(C3CNCCO3)nc2)cc1 (stereo not shown) [UCSD-0839460] | – | – | < 0.000141 | 80.4 | > 25 | -1.08 | 89.9 | 0.22 | 6.27 | –
COc1cccc(-c2noc(C3CCN(Cc4cn(C)nc4C)C3)n2)c1 (stereo not shown) [UCSD-0839537] | – | – | 9.44 | 86.1 | > 25 | 4.79 | 60.2 | 24 | – | inhibition at 2 µM [3]: 5.3%
COc1cc(CNCc2ccnc(N3CCCCC3)c2)cc(OC)c1 [UCSD-0841255] | – | – | 11.3 | 85 | > 25 | 36.6 | 1.69 | > 25 | -2.79 | –
CC(C)c1n[nH]c(C(=O)Nc2ccccn2)c1Br [UCSD-0842403] | – | – | < 0.000282 | 97.3 | > 50 | 31.1 | 97.1 | < 0.0244 | – | inhibition at 2 µM [3]: 24.9%
COc1c(C)cnc(CN2CCC(N(C)C(C)C(N)=O)CC2)c1C (stereo not shown) [UCSD-0844796] | – | – | 11.7 | 87.4 | > 25 | -0.307 | -2.93 | > 25 | 1.63 | –
Cc1noc(NC(=O)c2ccc(OC(F)(F)F)cc2)n1 [UCSD-0844950] | – | – | 8.23 | 93.2 | 23.7 | 50.3 | 29.1 | > 25 | – | inhibition at 2 µM [3]: 4.58%
Cc1noc(NC(=O)c2ccc(Br)s2)n1 [UCSD-0844983] | – | – | 14.7 | 88.4 | > 25 | 28.5 | -1.54 | > 25 | 5.11 | –
CC(C)N(CC(N)=O)Cc1csc(COc2ccc(F)cc2)n1 [UCSD-0845986] | – | – | 14.6 | 97.4 | 23.1 | 68.7 | 5.14 | > 25 | 6.02 | –
Cc1cc(CN2CCN(C(c3ccccc3)c3ccccc3)CC2)no1 [UCSD-0846071] | – | – | 8.97 | 104 | > 25 | 4.68 | 14.1 | > 25 | – | inhibition at 2 µM [3]: 0.21%
Cc1ccoc1C(=O)NC1CCN(Cc2csc3c(F)cccc23)CC1 [UCSD-0846562] | – | – | 11.1 | – | > 25 | 25.1 | 3.24 | > 25 | -2.96 | –
